Experimental data taken from PubChem BioAssay AID256 (DTP/NCI, 2004).
Where “and” joins values, the source holds several entries; their conditions need not be identical. Identical values can stand only once. Toxic doses and inconclusive results are not listed.

Test system: CD2F1 mice, L1210 leukemia ip, survival T/C
Test: NCI In Vivo Anticancer Drug Screen. Data for tumor model L1210 Leukemia (intraperitoneal) in CD2F1 (CDF1) mice
Settings: endpoint: mean survival time, higher = longer survival
Method in brief: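 Tumor-bearing mice (transplanted tumor) were split into treated and vehicle control groups, and the measured endpoint of each treated group was divided by that of its vehicle controls.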

[1] = dose: 100.0 mg/kg/injection, schedule: Q04DX003 (ip), vehicle: saline with Tween-80
[2] = dose: 50.0 mg/kg/injection, schedule: Q04DX002 (ip), vehicle: saline with Tween-80
[3] = dose: 100.0 mg/kg/injection, schedule: Q04DX002 (ip), vehicle: saline with Tween-80

CC1(C)N=C(N)N=C(N)N1c1ccc(C(C#N)CCCc2ccccc2)cc1 (stereo not drawn)
T/C (dose: 25.0 mg/kg/injection, schedule: Q01DX009 (ip), vehicle: Klucel (hydroxypropylcellulose) (HPC)): 97 % of control
T/C (dose: 50.0 mg/kg/injection, schedule: Q01DX009 (ip), vehicle: Klucel (hydroxypropylcellulose) (HPC)): 101 % of control
T/C (dose: 100.0 mg/kg/injection, schedule: Q01DX009 (ip), vehicle: Klucel (hydroxypropylcellulose) (HPC)): 91 % of control

COc1cc(NS(C)(=O)=O)ccc1Nc1c2ccc(Cl)cc2nc2c(OC)cccc12
T/C (dose: 12.5 mg/kg/injection, schedule: Q01DX009 (ip), vehicle: saline with Tween-80): 106 % of control
T/C (dose: 66.0 mg/kg/injection, schedule: Q04DX003 (ip), vehicle: saline with Tween-80): 238 % of control
T/C (dose: 100.0 mg/kg/injection, schedule: Q04DX003 (ip), vehicle: saline sonified): 168 % of control
T/C [1]: 273 % of control
T/C (dose: 150.0 mg/kg/injection, schedule: Q04DX003 (ip), vehicle: saline with Tween-80): 88 % of control
T/C (dose: 200.0 mg/kg/injection, schedule: Q04DX003 (ip), vehicle: saline sonified): 154 % of control

CCCCCCCCCCCCCCCCCCC(C)C1CCCCC1 (stereo not drawn)
T/C (dose: 100.0 mg/kg/injection, schedule: Q01DX001 (ip), vehicle: saline with Tween-80): 104 % of control
T/C (dose: 200.0 mg/kg/injection, schedule: Q01DX001 (ip), vehicle: saline with Tween-80): 107 % of control
T/C (dose: 400.0 mg/kg/injection, schedule: Q01DX001 (ip), vehicle: saline with Tween-80): 101 % of control

N.N.O=C([O-])/C=C\C(=O)[O-].[Pt]
T/C (dose: 2.5 mg/kg/injection, schedule: Q04DX003 (ip), vehicle: distilled water + Tween-80): 112 % of control
T/C (dose: 5.0 mg/kg/injection, schedule: Q04DX003 (ip), vehicle: distilled water + Tween-80): 116 % of control
T/C (dose: 10.0 mg/kg/injection, schedule: Q04DX003 (ip), vehicle: distilled water + Tween-80): 113 % of control
T/C (dose: 10.0 mg/kg/injection, schedule: Q04DX003 (ip), vehicle: water): 105 % of control
T/C (dose: 20.0 mg/kg/injection, schedule: Q04DX003 (ip), vehicle: distilled water + Tween-80): 118 % of control
T/C (dose: 20.0 mg/kg/injection, schedule: Q04DX003 (ip), vehicle: water): 113 % of control
T/C (dose: 40.0 mg/kg/injection, schedule: Q04DX003 (ip), vehicle: water): 118 % of control

Cc1ccc(N=NN(C)C)cc1
T/C (dose: 18.75 mg/kg/injection, schedule: Q01DX009 (ip), vehicle: Klucel (hydroxypropylcellulose) (HPC)): 118 % of control
T/C (dose: 75.0 mg/kg/injection, schedule: Q01DX009 (ip), vehicle: Klucel (hydroxypropylcellulose) (HPC)): 152 % of control

Cc1c(N)nc(C(CC(N)=O)NCC(N)C(N)=O)nc1C(=O)NC(C(=O)NC(C)C(O)CC(=O)NC(C(=O)NC(OC1OC(C)C(N)C(O)C1O)C(O)c1nc(-c2nc(C(=O)NCCCC(N)CC(=O)NCCCNCCCCN)cs2)cs1)C(C)O)C(OC1OC(CO)C(O)C(O)C1OC1OC(CO)C(O)C(OC(N)=O)C1O)c1cnc[nH]1 (stereo not drawn)
T/C (dose: 1.0 mg/kg/injection, schedule: Q01DX009 (ip), vehicle: saline): 103 % of control
T/C (dose: 2.0 mg/kg/injection, schedule: Q01DX009 (ip), vehicle: saline): 101 % of control
T/C (dose: 4.0 mg/kg/injection, schedule: Q01DX009 (ip), vehicle: saline): 104 % of control
T/C (dose: 8.0 mg/kg/injection, schedule: Q01DX009 (ip), vehicle: saline): 104 % of control
T/C (dose: 16.0 mg/kg/injection, schedule: Q01DX009 (ip), vehicle: saline): 86 % of control

O=S(=O)(Nc1ccc(O)c(Cl)c1)c1ccccc1
T/C [1]: 98 % of control
T/C (dose: 200.0 mg/kg/injection, schedule: Q04DX003 (ip), vehicle: saline with Tween-80): 97 % of control
T/C (dose: 400.0 mg/kg/injection, schedule: Q04DX003 (ip), vehicle: saline with Tween-80): 110 % of control

CCOC1CCN(CCCn2c3ccccc3c3ccccc32)CC1
T/C (dose: 25.0 mg/kg/injection, schedule: Q04DX002 (ip), vehicle: saline with Tween-80): 95 % of control
T/C [2]: 100 % of control
T/C [3]: 97 % of control and 111 % of control

Cc1ccc(CCC=O)o1
T/C [2]: 100 % of control
T/C [3]: 100 % of control
T/C (dose: 200.0 mg/kg/injection, schedule: Q04DX002 (ip), vehicle: saline with Tween-80): 100 % of control

CC(=O)OC1CCC2(C)C(CCC3C2CC(OC(C)=O)C2(C)C3CCC2C2(C)SCCS2)C1 (stereo not drawn)
T/C (dose: 50.0 mg/kg/injection, schedule: Q04DX002 (ip), vehicle: Klucel (hydroxypropylcellulose) (HPC)): 95 % of control
T/C (dose: 100.0 mg/kg/injection, schedule: Q04DX002 (ip), vehicle: Klucel (hydroxypropylcellulose) (HPC)): 98 % of control
T/C (dose: 200.0 mg/kg/injection, schedule: Q04DX002 (ip), vehicle: Klucel (hydroxypropylcellulose) (HPC)): 88 % of control
